One block for each molecule: values may come before it. Active and inactive are the calls of the source.
Legend:
[1] = molecular target: Peroxisome proliferator-activated receptor gamma/Nuclear receptor corepressor 2 (Homo sapiens, UniProt P37231+Q9Y618); test: Counterscreen for NR2E3 inverse agonists: TR-FRET-based biochemical high throughput dose response assay to identify inverse agonists of the interaction between peroxisome proliferator-activated receptor gamma (PPARg) and nuclear receptor co-repressor 2 (NCOR2).; assay type: functional
Chain of Peroxisome proliferator-activated receptor gamma/Nuclear receptor corepressor 2 (P37231 whole entry): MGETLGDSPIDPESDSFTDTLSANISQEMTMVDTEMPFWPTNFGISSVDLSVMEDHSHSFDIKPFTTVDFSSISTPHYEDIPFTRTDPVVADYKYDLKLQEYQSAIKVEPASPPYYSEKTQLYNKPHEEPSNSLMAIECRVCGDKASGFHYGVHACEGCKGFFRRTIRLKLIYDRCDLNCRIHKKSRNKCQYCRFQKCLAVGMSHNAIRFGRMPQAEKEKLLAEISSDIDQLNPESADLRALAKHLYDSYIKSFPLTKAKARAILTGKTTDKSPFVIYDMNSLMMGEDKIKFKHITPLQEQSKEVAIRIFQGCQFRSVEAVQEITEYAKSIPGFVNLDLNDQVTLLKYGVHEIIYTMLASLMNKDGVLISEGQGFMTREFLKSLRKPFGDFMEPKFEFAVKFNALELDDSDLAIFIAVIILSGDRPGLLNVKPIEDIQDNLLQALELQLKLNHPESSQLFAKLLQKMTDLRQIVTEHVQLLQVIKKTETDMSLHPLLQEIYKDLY
Chain of Peroxisome proliferator-activated receptor gamma/Nuclear receptor corepressor 2 (Q9Y618 whole entry): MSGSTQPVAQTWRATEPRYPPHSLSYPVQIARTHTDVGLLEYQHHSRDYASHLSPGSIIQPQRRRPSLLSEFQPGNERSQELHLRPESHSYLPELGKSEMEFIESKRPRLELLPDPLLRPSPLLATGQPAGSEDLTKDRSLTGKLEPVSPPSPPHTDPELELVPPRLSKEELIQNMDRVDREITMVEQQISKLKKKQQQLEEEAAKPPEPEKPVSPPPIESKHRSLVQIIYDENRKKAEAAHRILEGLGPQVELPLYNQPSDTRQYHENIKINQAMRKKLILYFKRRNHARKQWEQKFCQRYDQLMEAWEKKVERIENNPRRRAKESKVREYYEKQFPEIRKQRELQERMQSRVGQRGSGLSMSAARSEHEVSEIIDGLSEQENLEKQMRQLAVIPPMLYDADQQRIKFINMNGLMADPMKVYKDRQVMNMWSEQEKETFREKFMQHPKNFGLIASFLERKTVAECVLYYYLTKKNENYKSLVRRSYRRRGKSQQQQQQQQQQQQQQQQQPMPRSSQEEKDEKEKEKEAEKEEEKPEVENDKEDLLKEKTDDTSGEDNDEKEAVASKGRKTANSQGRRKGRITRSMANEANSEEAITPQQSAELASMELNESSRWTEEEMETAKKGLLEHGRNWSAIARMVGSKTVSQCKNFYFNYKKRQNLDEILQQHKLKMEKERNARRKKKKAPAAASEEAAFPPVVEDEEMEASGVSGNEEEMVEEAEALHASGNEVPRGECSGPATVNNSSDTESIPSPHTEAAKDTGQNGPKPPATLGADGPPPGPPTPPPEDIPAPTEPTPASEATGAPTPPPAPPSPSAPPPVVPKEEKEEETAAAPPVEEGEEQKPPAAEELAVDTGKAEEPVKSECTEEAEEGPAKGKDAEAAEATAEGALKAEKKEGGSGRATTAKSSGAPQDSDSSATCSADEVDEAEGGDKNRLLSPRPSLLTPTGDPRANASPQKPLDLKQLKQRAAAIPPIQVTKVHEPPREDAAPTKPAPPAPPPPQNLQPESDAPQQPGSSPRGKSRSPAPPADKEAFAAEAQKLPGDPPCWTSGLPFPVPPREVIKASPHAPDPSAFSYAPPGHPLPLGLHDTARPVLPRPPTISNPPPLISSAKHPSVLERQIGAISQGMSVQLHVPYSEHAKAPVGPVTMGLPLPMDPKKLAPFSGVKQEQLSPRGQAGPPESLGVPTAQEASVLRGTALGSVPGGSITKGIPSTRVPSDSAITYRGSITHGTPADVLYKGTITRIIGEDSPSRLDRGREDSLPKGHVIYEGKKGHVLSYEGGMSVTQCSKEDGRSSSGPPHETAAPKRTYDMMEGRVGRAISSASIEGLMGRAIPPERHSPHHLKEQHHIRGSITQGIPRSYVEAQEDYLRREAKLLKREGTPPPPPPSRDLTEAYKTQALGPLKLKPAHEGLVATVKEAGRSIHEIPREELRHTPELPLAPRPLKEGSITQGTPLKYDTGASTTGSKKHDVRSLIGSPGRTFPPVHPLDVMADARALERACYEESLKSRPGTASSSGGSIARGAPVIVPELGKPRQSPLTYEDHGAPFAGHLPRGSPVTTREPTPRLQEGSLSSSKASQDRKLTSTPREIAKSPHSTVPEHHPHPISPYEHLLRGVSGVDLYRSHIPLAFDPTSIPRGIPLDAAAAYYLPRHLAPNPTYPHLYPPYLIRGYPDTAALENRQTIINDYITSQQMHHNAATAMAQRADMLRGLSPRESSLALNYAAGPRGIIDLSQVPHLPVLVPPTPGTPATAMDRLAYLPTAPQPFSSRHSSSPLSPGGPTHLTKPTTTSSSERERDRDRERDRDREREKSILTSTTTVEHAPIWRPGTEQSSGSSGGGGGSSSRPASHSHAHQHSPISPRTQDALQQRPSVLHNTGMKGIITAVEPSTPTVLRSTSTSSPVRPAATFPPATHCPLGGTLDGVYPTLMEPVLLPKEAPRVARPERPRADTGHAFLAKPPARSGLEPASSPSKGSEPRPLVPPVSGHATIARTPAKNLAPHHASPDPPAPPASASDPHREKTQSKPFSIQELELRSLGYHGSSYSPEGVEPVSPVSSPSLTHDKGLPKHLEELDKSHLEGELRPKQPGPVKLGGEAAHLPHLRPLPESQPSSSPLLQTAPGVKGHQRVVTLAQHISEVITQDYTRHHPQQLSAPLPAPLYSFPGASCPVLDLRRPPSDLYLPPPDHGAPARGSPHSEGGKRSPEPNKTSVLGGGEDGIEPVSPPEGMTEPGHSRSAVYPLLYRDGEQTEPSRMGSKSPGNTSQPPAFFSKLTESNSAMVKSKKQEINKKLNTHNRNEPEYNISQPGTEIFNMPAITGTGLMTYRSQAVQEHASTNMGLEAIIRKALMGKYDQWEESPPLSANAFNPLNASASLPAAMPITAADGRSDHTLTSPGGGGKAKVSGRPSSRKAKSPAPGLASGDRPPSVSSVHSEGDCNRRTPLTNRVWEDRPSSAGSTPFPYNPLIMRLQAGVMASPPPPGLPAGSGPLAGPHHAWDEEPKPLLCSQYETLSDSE

[2] = molecular target: Photoreceptor-specific nuclear receptor (Homo sapiens, UniProt Q9Y5X4); test: NR2E3 inverse agonists, dose response, biochemical, TR-FRET (AID 463256); assay type: functional
Chain of Photoreceptor-specific nuclear receptor (Q9Y5X4 whole entry): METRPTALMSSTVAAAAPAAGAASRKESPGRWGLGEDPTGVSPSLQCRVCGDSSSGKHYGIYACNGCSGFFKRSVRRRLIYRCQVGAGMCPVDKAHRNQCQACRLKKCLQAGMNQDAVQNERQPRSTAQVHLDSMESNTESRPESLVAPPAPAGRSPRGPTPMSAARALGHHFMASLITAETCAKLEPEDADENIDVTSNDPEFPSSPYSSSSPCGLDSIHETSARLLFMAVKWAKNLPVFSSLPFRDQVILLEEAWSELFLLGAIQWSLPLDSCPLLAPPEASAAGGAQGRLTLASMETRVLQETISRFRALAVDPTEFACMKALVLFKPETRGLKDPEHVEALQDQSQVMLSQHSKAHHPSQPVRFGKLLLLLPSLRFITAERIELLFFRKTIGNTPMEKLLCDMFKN

Genome polyprotein = Genome polyprotein (Hepatitis C virus, UniProt Q2Q167); test: HCV core protein dimerization inhibitors, dose response, biochemical, TR-FRET (AID 2159); design: species or system Hepacivirus hominis;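 further: blocks dimerization of HCV core protein measured by TR-FRET between tagged core106 pairs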
Chain of Genome polyprotein (Q2Q167 whole entry): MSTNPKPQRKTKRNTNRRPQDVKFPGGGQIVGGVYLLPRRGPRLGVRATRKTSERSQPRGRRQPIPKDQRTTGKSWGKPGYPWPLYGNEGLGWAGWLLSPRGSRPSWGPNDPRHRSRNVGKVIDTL

INS1 = test: beta cell apoptosis inhibitors, cytokine rescue, dose response, luminescence, retest (AID 449756); assay type: functional, cell-based; conditions: Rattus norvegicus;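 further: cell death triggered by IL-1 beta plus TNF-alpha plus IFN-gamma mixture; protective hits raise ATP signal compared with cytokine alone wells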
Caspase-6 = molecular target: T1, Caspase-6 (Homo sapiens, UniProt P55212); test: human caspase-6 inhibitors, dose response, biochemical, VEID-R110 fluorescence, cherry-pick (AID 720632)
T1 sequence (P55212 whole entry): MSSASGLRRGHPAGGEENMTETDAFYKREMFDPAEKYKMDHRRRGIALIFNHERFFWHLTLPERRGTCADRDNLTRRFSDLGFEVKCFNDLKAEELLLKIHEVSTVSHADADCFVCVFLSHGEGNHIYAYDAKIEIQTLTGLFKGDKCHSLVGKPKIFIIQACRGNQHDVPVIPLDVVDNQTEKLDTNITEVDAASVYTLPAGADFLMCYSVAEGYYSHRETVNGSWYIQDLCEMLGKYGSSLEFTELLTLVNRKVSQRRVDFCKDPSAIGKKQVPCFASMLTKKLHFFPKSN

[3] = molecular target: E3 ubiquitin-protein ligase Mdm2 (Homo sapiens, UniProt Q00987); test: enhancers of MDM2-luciferase reporter signal, concentration-effect titration, project on inhibitors of MDM2 ubiquitin ligase, cellular assay, luminescent readout, 384-well plate format (AID 1394); assay type: functional;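 further: MDM2 E3 inhibitors raise luminescence so EC50 is for signal enhancement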
Chain of E3 ubiquitin-protein ligase Mdm2 (Q00987 whole entry): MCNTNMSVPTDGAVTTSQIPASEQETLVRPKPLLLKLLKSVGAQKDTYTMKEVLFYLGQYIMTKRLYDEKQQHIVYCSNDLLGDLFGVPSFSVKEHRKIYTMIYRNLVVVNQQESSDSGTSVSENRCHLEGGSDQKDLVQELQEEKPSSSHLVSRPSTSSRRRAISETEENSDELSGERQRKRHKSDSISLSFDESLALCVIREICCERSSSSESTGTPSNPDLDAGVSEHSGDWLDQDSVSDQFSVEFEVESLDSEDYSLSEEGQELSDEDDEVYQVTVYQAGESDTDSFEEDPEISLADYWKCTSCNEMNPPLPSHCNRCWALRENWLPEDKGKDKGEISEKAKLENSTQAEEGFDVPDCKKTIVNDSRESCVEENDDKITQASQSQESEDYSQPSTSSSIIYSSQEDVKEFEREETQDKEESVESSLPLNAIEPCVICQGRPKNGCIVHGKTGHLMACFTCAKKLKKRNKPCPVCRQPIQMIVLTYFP

[4] = molecular target: Glyceraldehyde-3-phosphate dehydrogenase (Homo sapiens, UniProt P04406)
Chain of Glyceraldehyde-3-phosphate dehydrogenase (P04406 whole entry): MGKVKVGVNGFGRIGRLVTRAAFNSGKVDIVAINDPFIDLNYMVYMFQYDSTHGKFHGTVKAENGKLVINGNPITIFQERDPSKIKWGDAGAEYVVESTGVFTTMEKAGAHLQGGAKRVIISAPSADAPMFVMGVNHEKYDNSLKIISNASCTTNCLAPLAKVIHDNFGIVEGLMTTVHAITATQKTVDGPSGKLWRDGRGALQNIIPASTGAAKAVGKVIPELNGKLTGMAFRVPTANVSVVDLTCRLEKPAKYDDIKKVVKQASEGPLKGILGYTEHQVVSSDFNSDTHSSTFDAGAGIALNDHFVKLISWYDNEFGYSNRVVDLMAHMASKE

Bcl-2-related protein A1 [5] = molecular target: T2, Bcl-2-related protein A1 (Mus musculus, UniProt Q07440); test: Bfl-1 inhibitors blocking BH3 peptide binding, confirmation, biochemical, TR-FRET, mouse Bfl-1 (AID 621);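 further: TR-FRET binding of GST-Bfl-1 to FITC-labelled Bid peptide via terbium antibody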
T2 sequence (Q07440 whole entry): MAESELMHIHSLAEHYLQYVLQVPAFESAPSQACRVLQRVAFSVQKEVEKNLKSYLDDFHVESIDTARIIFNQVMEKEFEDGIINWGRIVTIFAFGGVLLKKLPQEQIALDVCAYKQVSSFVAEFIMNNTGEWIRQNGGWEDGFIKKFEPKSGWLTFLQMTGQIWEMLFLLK

Bcl-2-related protein A1 [6] = molecular target: T2, Bcl-2-related protein A1; test: Bfl-1 binding inhibitors, SAR follow-up, biochemical, fluorescence polarization (AID 1070)
[7] = Luminescence Cell-Based Dose Confirmation HTS to Identify Inhibitors of Polyadenylation.; assay type: functional

SMILES: CC1=NN(c2ccc(C)c(C)c2)C(=O)/C1=C\C=C\c1ccc([N+](=O)[O-])o1
IC50 (Genome polyprotein): > 49.8 µM (not active)
AC50 (INS1): 4.08 µM (active)
AC50 (Caspase-6): 1.79 µM (active)

SMILES: COc1ccc2[nH]c(C(=O)O)c(CCNC(C)=O)c2c1
EC50 [3]: 0.39 µM (not active)

SMILES: O=C1C(Cl)=C(Cl)C(=O)N1c1ccnc(Cl)c1
IC50 [4]: > 100 µM (not active)
IC50 (Bcl-2-related protein A1 [5]): 39.9 µM (active)
IC50 (Bcl-2-related protein A1 [6]): > 100 µM (not active)

SMILES: COc1ccc2no[n+]([O-])c2c1
EC50 [7]: > 120 µM (not active)

SMILES: Cc1cc2c(s1)c1cnn(CC(=O)NCCc3ccccc3)c(=O)c1n2C
IC50 [1]: 2.65 µM (active)
IC50 [2]: 2.52 µM (active)

Results, then the molecule that gave them:

IC50 [1]: > 39.9 µM (not active)
IC50 [2]: > 39.9 µM (not active)
SMILES: COc1ccc2[nH]c(C(=O)Nc3ccc(F)cc3Br)cc2c1

IC50 (Genome polyprotein): > 49.8 µM (not active)
SMILES: COc1ccc(N2CCN(C(=O)c3ccc4c(c3)NC(=O)C(CSCc3ccc(C)cc3)N4)CC2)cc1 (stereo unspecified)

IC50 [4]: > 100 µM (not active)
IC50 (Bcl-2-related protein A1 [5]): 1.95 µM (active)
IC50 (Bcl-2-related protein A1 [6]): 6.96 µM (active)
SMILES: CC1CN(C2=C(Cl)C(=O)N(c3ccc(Cl)c(Cl)c3)C2=O)CCN1 (stereo unspecified)
